Data reported in the C3SDB collision cross section collection.
Values joined by “and” are separate entries in the source; they are usually repeats but may differ in a detail not shown here. Equal values may be shown once.

How the values were obtained:
[1] = instrument: DT, single field, calibrated with Agilent tune mix (Agilent)
[2] = instrument: DT, single field, calibrated with ESI Low Concentration Tuning Mix (Agilent)
[3] = [M+H]+; instrument: TW; calibrated with polyalanine and drug standards

Structure (SMILES) | collision cross section (N2) ([1]; [M+H]+) | collision cross section (N2) ([1]; [M-H]-) | other results
CCCCCCC(N)C(=O)O (racemic) [DL-2-Aminooctanoic acid] | 147.1 Å² | 141.62 Å² | 
O=C(O)C(O)Cc1ccccc1 (racemic) [DL-3-Phenyllactic acid] | 137.8 Å² | 134.74 Å² | 
N[C@@H](CCSSCC[C@H](N)C(=O)O)C(=O)O (racemic) [DL-Homocystine] | 157.9 Å² |  | collision cross section (N2) ([1]; [M+Na-2H]-): 152.2 Å²
COc1cc(C(O)C(=O)O)ccc1O (racemic) [DL-Vanillylmandelic acid] |  | 140.9 Å² | collision cross section (N2) ([1]; [M+H-H2O]+): 133.3 Å²
Cn1c(=O)c2[nH]c(=O)[nH]c2n(C)c1=O [1,3-Dimethyluric acid] | 142.5 Å² | 134.24 Å² | 
Cn1cnc2c(ncn2[C@@H]2O[C@H](CO)[C@@H](O)[C@H]2O)c1=N [1-Methyladenosine] | 164.2 Å² | 159.21 Å² | 
Cn1c(=O)[nH]c2nc[nH]c2c1=O [1-Methylxanthine] |  | 124.23 Å² | 
CCCCCCCCCCCCCCCCCC(=O)OC[C@@H](O)CO [1-Stearoyl-sn-glycerol] |  |  | collision cross section (N2) ([1]; [M+H-H2O]+): 199.6 Å²
Nc1ncnc2c1ncn2[C@H]1C[C@H](O)[C@@H](COP(=O)(O)OP(=O)(O)OP(=O)(O)O)O1 [2'-Deoxyadenosine 5'-triphosphate] |  | 183.78 Å² | 
Nc1nc(=O)c2ncn([C@H]3C[C@H](O)[C@@H](COP(=O)(O)OP(=O)(O)O)O3)c2[nH]1 [2'-Deoxyguanosine 5'-diphosphate] |  |  | collision cross section (N2) ([1]; [M-H2O-H]-): 174.28 Å²
O=c1ccn([C@H]2C[C@H](O)[C@@H](CO)O2)c(=O)[nH]1 [2'-Deoxyuridine] |  | 145.91 Å² | collision cross section (N2) ([1]; [M+Na]+): 156 Å²
O=C(O)c1cccc(O)c1O [2,3-Dihydroxybenzoic acid] |  | 118.42 Å² | 
CCCCCCCC/C=C/CCCCCCCC(=O)O[C@H](COC(=O)CCCCCCCCCCCCCCC)COP(=O)([O-])OCC[N+](C)(C)C [2-Oleoyl-1-palmitoyl-sn-glycero-3-phosphocholine] | 286.7 Å² | 272.17 Å² | 
Nc1ncnc2c1ncn2[C@@H]1O[C@H](COP(=O)(O)OS(=O)(=O)O)[C@@H](OP(=O)(O)O)[C@H]1O [3'-Phosphoadenosine 5'-phosphosulfate] |  | 192.76 Å² | 
O=C(O)CCc1ccc(O)c(O)c1 [3,4-Dihydroxyhydrocinnamic acid] |  | 133.05 Å² | 
O=C(O)C(O)c1ccc(O)c(O)c1 (configuration not stated) [3,4-Dihydroxymandelic acid] |  | 135 Å² | collision cross section (N2) ([1]; [M+H-H2O]+): 132 Å²
Nc1cccc(C(=O)O)c1O [3-Aminosalicylic acid] |  | 122.07 Å² | 
CC(O)(CC(=O)O)CC(=O)O [3-Hydorxy-3-methylglutaric acid] |  | 123.66 Å² | 
O=C(O)Cc1cccc(O)c1 [3-Hydroxyphenylacetic acid] |  |  | collision cross section (N2) ([1]; [M+Na-2H]-): 135.74 Å²
N[C@@H](Cc1ccc(O)c(I)c1)C(=O)O [3-Iodo-L-tyrosine] | 158.8 Å² |  | collision cross section (N2) ([1]; [M+Na-2H]-): 148.03 Å²

Structure (SMILES) | collision cross section (N2) ([1]; [M+H]+) | collision cross section (N2) ([1]; [M-H]-) | other results
CC(CCC(=O)O)CC(=O)O (configuration not stated) [3-Methyladipic acid] |  | 129.01 Å² | 
CC(C)CC(=O)SCCNC(=O)CCNC(=O)[C@H](O)C(C)(C)COP(=O)(O)OP(=O)(O)OC[C@H]1O[C@@H](n2cnc3c(N)ncnc32)[C@H](O)[C@@H]1OP(=O)(O)O [3-Methylbutanoyl-CoA] |  | 255.72 Å² | 
O=C(O)CCc1ccccc1 [3-Phenylpropanoic acid] |  | 135.74 Å² | 
NC(=O)NCCC(=O)O [3-Ureidopropionate] |  |  | collision cross section (N2) ([1]; [M+Na]+): 132.3 Å²
C[C@]12CC[C@@H](O)C[C@@H]1CC[C@@H]1[C@@H]2CC[C@]2(C)C(=O)CC[C@@H]12 [3alpha-Hydroxy-5alpha-androstan-17-one] |  | 176.71 Å² | 
O=C(O)/C=C/c1ccc(O)cc1 [4-Hydroxycinnamic acid] |  | 129.27 Å² | collision cross section (N2) ([1]; [M+H-H2O]+): 127 Å²
CC1=C(/C=C/C(C)=C/C=C/C(C)=C/CO)C(C)(C)CCC1=O [4-Oxoretinol] |  |  | collision cross section (N2) ([1]; [M+H-H2O]+): 173.3 Å²
Cc1ncc(CO)c(C(=O)O)c1O [4-Pyridoxic acid] | 135.3 Å² and 135.8 Å² |  | 
NCCCCC(=O)O [5-Aminopentanoic acid] | 121.3 Å² | 124.49 Å² | 
NC[C@H](O)CC[C@H](N)C(=O)O [5-Hydroxy-L-lysine] | 135.1 Å² | 131.7 Å² | 
O=C(O)Cc1c[nH]c2ccc(O)cc12 [5-Hydroxyindoleacetate] | 140.9 Å² |  | 
OCCc1c[nH]c2ccc(O)cc12 [5-Hydroxytryptophol] | 138.7 Å² | 134.49 Å² | 
C[C@H](NC(=O)CC[C@H](N)C(=O)O)C(=O)O [5-L-Glutamyl-L-alanine] | 149.6 Å² | 140.25 Å² | 
COc1ccc2[nH]cc(CCN(C)C)c2c1 [5-Methoxydimethyltryptamine] | 151.5 Å² | 153.76 Å² | 
COc1ccc2[nH]cc(CC(=O)O)c2c1 [5-Methoxyindoleacetate] | 144 Å² |  | 
COc1ccc2[nH]cc(C[C@H](N)C(=O)O)c2c1 [5-methoxytryptophan] |  | 154.36 Å² | collision cross section (N2) ([1]; [M+Na]+): 156.2 Å²
C[C@]12CCC(=O)C=C1CC[C@@H]1[C@@H]2CC[C@@]2(C)[C@H]1CC[C@]2(O)C(=O)CO [11-Deoxycortisol] |  | 183.12 Å² | 
CC(=O)[C@H]1CC[C@H]2[C@@H]3CCC4=CC(=O)CC[C@]4(C)[C@H]3[C@@H](O)C[C@]12C [11beta-Hydroxyprogesterone] | 182.3 Å² |  | collision cross section (N2) ([1]; [M-H2O-H]-): 180.95 Å²
CCCCC/C=C/C=C1/C(=O)C=C[C@@H]1C/C=C\CCCC(=O)O [15-Deoxy-delta-12,14-PGJ2] |  |  | collision cross section (N2) ([1]; [M+Na]+): 192.5 Å²
C[C@H](CCCC(C)(C)O)[C@H]1CC[C@H]2[C@@H]3CC=C4C[C@@H](O)CC[C@]4(C)[C@H]3CC[C@]12C [25-Hydroxycholesterol] |  | 202.81 Å² | 

Structure (SMILES) | collision cross section (N2) ([1]; [M+H]+) | collision cross section (N2) ([1]; [M-H]-) | other results
CCCCC/C=C\C/C=C\C/C=C\CCCCC(=O)O [(6,9,12)-Linolenic acid] | 174.1 Å² |  | 
CC(=O)OP(=O)(O)O [Acetyl phosphate] |  |  | collision cross section (N2) ([1]; [M+Na]+): 142.7 Å²
CC(=O)SCCNC(=O)CCNC(=O)[C@H](O)C(C)(C)COP(=O)(O)OP(=O)(O)OC[C@H]1O[C@@H](n2cnc3c(N)ncnc32)[C@H](O)[C@@H]1OP(=O)(O)O [Acetyl-CoA] | 244.7 Å² |  | 
Nc1ncnc2c1ncn2[C@@H]1O[C@@H]2COP(=O)(O)O[C@H]2[C@H]1O [Adenosine 3',5'-cyclic phosphate] | 176.8 Å² |  | 
Nc1ncnc2c1ncn2[C@@H]1O[C@H](COP(=O)(O)OP(=O)(O)OP(=O)(O)O)[C@@H](O)[C@H]1O [Adenosine 5'-triphosphate] | 196.4 Å² | 185.74 Å² | 
Nc1ncnc2c1ncn2[C@@H]1O[C@H](COP(=O)(O)O)[C@@H](O)[C@H]1O [Adenosine monophosphate (AMP)] | 171.4 Å² |  | 
O=C(O)CCCCC(=O)O [Adipic acid] |  |  | collision cross section (N2) ([1]; [M+Na-2H]-): 129.61 Å²
O=P(O)(O)OC[C@H]1O[C@H](OP(=O)(O)O)[C@H](O)[C@@H](O)[C@@H]1O [Alpha-D-Glucose 1,6-bisphosphate] |  |  | collision cross section (N2) ([1]; [M+Na-2H]-): 159.11 Å²
OC[C@H]1O[C@H](O)[C@H](O)[C@@H](O)[C@@H]1O [Alpha-D-Glucose] |  |  | collision cross section (N2) ([1]; [M+Na]+): 146.2 Å²
C[C@]12CCC(=O)C=C1CC[C@@H]1[C@@H]2CC[C@]2(C)C(=O)CC[C@@H]12 [Androstendione] |  | 172.77 Å² | 
C[C@]12CC[C@@H](O)C[C@@H]1CC[C@@H]1[C@@H]2CC[C@]2(C)C(=O)CC[C@@H]12 [Androsterone] |  |  | collision cross section (N2) ([1]; [M+H-H2O]+): 166.6 Å²
COC(=O)[C@H](Cc1ccccc1)NC(=O)[C@@H](N)CC(=O)O [Aspartame] | 169.6 Å² | 166.71 Å² | 
O=C1CC(=O)NC(=O)N1 [Barbituric acid] |  | 112.69 Å² | 
C[C@]12CC[C@@H]3c4ccc(O)cc4CC[C@H]3[C@@H]1CC[C@@H]2O [Beta-Estradiol] |  | 173.34 Å² | 
C=CC1=C(C)/C(=C/c2[nH]c(Cc3[nH]c(/C=C4\NC(=O)C(C)=C4C=C)c(C)c3CCC(=O)O)c(CCC(=O)O)c2C)NC1=O [Bilirubin] |  | 247.18 Å² | 
Nc1ccccc1C(=O)CC(N)C(=O)O (configuration not stated) [KYNURENINE] |  |  | collision cross section (N2) ([2]; [M+H]+): 149.3 Å² and 149.6 Å²; collision cross section (N2) ([2]; [M+Na]+): 152.8 Å² and 153.1 Å²; collision cross section (N2) [3]: 146 Å²
Cc1ncc(CO)c(CO)c1O [PYRIDOXINE] |  |  | collision cross section (N2) ([2]; [M+H]+): 134.4 Å²; collision cross section (N2) ([2]; [M-H]-): 132.4 Å²; collision cross section (N2) [3]: 132.3 Å²
Cc1cc2nc3c(=O)[nH]c(=O)nc-3n(C[C@H](O)[C@H](O)[C@H](O)CO)c2cc1C [RIBOFLAVIN] |  |  | collision cross section (N2) ([2]; [M+H]+): 188.5 Å²; collision cross section (N2) ([2]; [M-H]-): 186.1 Å²; collision cross section (N2) [3]: 184.9 Å²
NC(=O)c1ccccc1O [SALICYLAMIDE] |  |  | collision cross section (N2) ([2]; [M+H]+): 124.4 Å²; collision cross section (N2) ([2]; [M-H]-): 121.1 Å²; collision cross section (N2) [3]: 122.2 Å²
